Data on 24 compounds can be found in patent publication US8067445B2, “N,N-disubstituted aminoalkylbiphenyl antagonists of prostaglandin D2 receptors” (Panmira Pharmaceuticals, LLC, priority 2008, dated 2011).

The target in one assay is T1, human DP2 receptor (Homo sapiens, UniProt Q9Y5Y4).
T1 construct: expressed in transfected cells
T1 sequence (Q9Y5Y4 1-395): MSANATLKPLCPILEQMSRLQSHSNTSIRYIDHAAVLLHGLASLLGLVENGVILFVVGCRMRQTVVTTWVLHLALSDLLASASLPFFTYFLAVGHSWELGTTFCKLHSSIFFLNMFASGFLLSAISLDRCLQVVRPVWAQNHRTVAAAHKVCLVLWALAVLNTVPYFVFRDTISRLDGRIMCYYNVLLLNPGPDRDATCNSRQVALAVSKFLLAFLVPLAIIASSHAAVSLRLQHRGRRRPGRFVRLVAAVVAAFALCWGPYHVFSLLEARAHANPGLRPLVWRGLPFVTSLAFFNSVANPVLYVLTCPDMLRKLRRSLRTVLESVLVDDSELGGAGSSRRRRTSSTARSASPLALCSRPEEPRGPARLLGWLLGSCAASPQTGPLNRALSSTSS
Kind of assay: DP2/CRTH2 radioligand binding assay ([3H]PGD2). Particulars: [3H]PGD2 binding, membranes of HEK293 cells expressing human DP2; read-out: hDP2. An outline of the steps:
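Membranes from HEK293 cells stably expressing recombinant human DP2 incubated 60 min at room temperature with 1 nM [3H]PGD2 and compound in pH 7.4 Hepes/MnCl2/EDTA buffer, ± 0.2% human serum albumin. Bound radioactivity measured after filtration; non-specific binding defined with 10 μM PGD2. IC50 from titration curves.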

The next assay addresses T2, human DP1 receptor (Homo sapiens, UniProt Q13258).
T2 construct: tissue Biological Specialty Corporation; host or cells: human platelet membranes
T2 sequence (Q13258 1-359): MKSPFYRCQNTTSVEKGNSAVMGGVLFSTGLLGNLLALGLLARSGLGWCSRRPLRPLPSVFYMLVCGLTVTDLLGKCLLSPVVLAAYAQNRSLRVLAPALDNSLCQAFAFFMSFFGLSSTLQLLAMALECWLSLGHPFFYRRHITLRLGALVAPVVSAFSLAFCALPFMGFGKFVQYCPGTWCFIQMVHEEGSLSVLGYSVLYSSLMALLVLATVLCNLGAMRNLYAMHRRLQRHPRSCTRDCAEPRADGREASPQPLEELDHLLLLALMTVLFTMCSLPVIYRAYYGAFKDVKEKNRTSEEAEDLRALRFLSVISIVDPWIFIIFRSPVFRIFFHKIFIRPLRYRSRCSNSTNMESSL
The experiment in a line: DP1 radioligand binding assay ([3H]BWA868C, platelet membranes). The note with it: [3H]BWA868C binding, human platelet membranes; read-out: hDP1. An outline of the steps: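 Human platelet membranes (20 μg protein/well) incubated 60 min at room temperature with 2 nM [3H]BWA868C and compound in 50 mM Hepes, 10 mM MnCl2, 1 mM EDTA, pH 7.4, ± 0.2% human serum albumin. Bound radioactivity measured after filtration; nonspecific binding defined with 10 μM BWA868C; IC50 from titration curves.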

With `CCN(Cc1cc(C(F)(F)F)ccc1-c1cc(CC(=O)O)ccc1OC)C(=O)Cn1cccn1` [Compound 1-148, (2′-{[Ethyl-(2-pyrazol-1-yl-acetyl)-amino]-methyl}-6-methoxy-4′-trifluoromethyl-biphenyl-3-yl)-acetic acid], the IC50 on human DP2 receptor is less than 300 nM; at human DP1 receptor it was 1000 to 30000 nM.

Consider `CCN(Cc1ccc(C(F)(F)F)cc1-c1cc(CC(=O)O)ccc1OC)C(=O)OCc1ccc(F)cc1` [Compound 1-168, (2′-{[Ethyl-(4-fluoro-benzyloxycarbonyl)-amino]-methyl}-6-methoxy-5′-trifluoromethyl-biphenyl-3-yl)-acetic acid], for which the IC50 at human DP2 receptor is less than 300 nM; on human DP1 receptor, 300 to 1000 nM.

For `CCN(Cc1ccc(C)cc1-c1cc(CC(=O)O)ccc1OC)C(=O)NCc1ccccc1` [Compound 1-173, [2′-(3-Benzyl-1-ethyl-ureidomethyl)-6-methoxy-5′-methyl-biphenyl-3-yl]-acetic acid], the IC50 on human DP2 receptor is less than 300 nM; on human DP1 receptor, 1000 to 30000 nM.

With `CCN(Cc1cc(C(F)(F)F)ccc1-c1cc(CC(=O)O)ccc1OC)/C(=N/C#N)NCC1CC1` [Compound 1-146, [2′-(N′-Cyano-N″-cyclopropylmethyl-N-ethyl-guanidinomethyl)-6-methoxy-4′-trifluoromethyl-biphenyl-3-yl]-acetic acid], the IC50 at human DP2 receptor was less than 300 nM; at human DP1 receptor, 1000 to 30000 nM.

Consider `CCN(Cc1cc(C(F)(F)F)ccc1-c1cc(CC#N)ccc1OC)C(=O)OCc1ccccc1` [Compound 2-4, (5′-Cyanomethyl-2′-methoxy-4-trifluoromethyl-biphenyl-2-ylmethyl)-ethyl-carbamic acid benzyl ester], for which the IC50 on human DP2 receptor is greater than 30000 nM; on human DP1 receptor it was 1000 to 30000 nM.

Regarding `CCN(Cc1cc(C(F)(F)F)ccc1-c1cc(C(F)(F)C(=O)O)ccc1OC)C(=O)OCc1ccccc1` [Compound 1-132, {2′-[(Benzyloxycarbonyl-ethyl-amino)-methyl]-6-methoxy-4′-trifluoromethyl-biphenyl-3-yl}-difluoro-acetic acid], the IC50 at human DP2 receptor and at human DP1 receptor was 1000 to 30000 nM throughout.

Take `CCN(Cc1cc(C(F)(F)F)ccc1-c1cc(CC(N)=O)ccc1OC)C(=O)OCc1ccccc1` [Compound 2-6, (5′-Carbamoylmethyl-2′-methoxy-4-trifluoromethyl-biphenyl-2-ylmethyl)-ethyl-carbamic acid benzyl ester]: the IC50 at human DP2 receptor and at human DP1 receptor was 1000 to 30000 nM in each case.

With `CCN(Cc1cc(C(F)(F)F)ccc1-c1cc(CC(=O)O)cc(C(F)(F)F)c1)C(=O)NCc1ccccc1` [Compound 1-158, [2′-(3-Benzyl-1-ethyl-ureidomethyl)-5,4′-bis-trifluoromethyl-biphenyl-3-yl]-acetic acid], the IC50 at human DP2 receptor is less than 300 nM; at human DP1 receptor, 1000 to 30000 nM.

Take `CCN(Cc1ccc(C)cc1-c1cc(CC(=O)O)ccc1OC)C(=O)C1CC1` [Compound 1-171, {2′-[(Cyclopropanecarbonyl-ethyl-amino)-methyl]-6-methoxy-5′-methyl-biphenyl-3-yl}-acetic acid]: the IC50 on human DP2 receptor was less than 300 nM; on human DP1 receptor, 1000 to 30000 nM.

In the case of `COc1ccc(CC(=O)O)cc1-c1ccc(C(F)(F)F)cc1CN(CCc1ccccc1)S(C)(=O)=O` [Compound 1-101, {2′-[(Methanesulfonyl-phenethyl-amino)-methyl]-6-methoxy-4′-trifluoromethyl-biphenyl-3-yl}-acetic acid], the IC50 at human DP2 receptor and on human DP1 receptor was 1000 to 30000 nM in each case.

Turning to `CCN(Cc1cc(C(F)(F)F)ccc1-c1cc(Cl)cc(CC(=O)O)c1)C(C)=O` [Compound 1-137, {2′-[(Acetyl-ethyl-amino)-methyl]-5-chloro-4′-trifluoromethyl-biphenyl-3-yl}-acetic acid], the figures for the IC50 on human DP2 receptor and at human DP1 receptor were less than 300 nM and 1000 to 30000 nM, respectively.

Turning to `CCN(Cc1cc(C(F)(F)F)ccc1-c1cc(C(F)(F)C(=O)O)ccc1OC)C(C)=O` [Compound 1-91, {2′-[(Acetyl-ethyl-amino)-methyl]-6-methoxy-4′-trifluoromethyl-biphenyl-3-yl}-difluoro-acetic acid], the IC50 on human DP2 receptor and at human DP1 receptor was 1000 to 30000 nM in each case.

Consider `CCCN/C(=N\C#N)N(CC)Cc1cc(C(F)(F)F)ccc1-c1cc(CC(=O)O)ccc1OC` [Compound 1-145, [2′-(N′-Cyano-N-ethyl-N″-propyl-guanidinomethyl)-6-methoxy-4′-trifluoromethyl-biphenyl-3-yl]-acetic acid], for which the results for the IC50 at human DP2 receptor and at human DP1 receptor were less than 300 nM and 1000 to 30000 nM, respectively.

As for `CCN(Cc1cc(C(F)(F)F)ccc1-c1cc(CC(=O)O)ccc1OC)C(=O)NCc1ccc(Cl)cc1` [Compound 1-140, {2′-[3-(4-Chloro-benzyl)-1-ethyl-ureidomethyl]-6-methoxy-4′-trifluoromethyl-biphenyl-3-yl}-acetic acid], the IC50 at human DP2 receptor is less than 300 nM; at human DP1 receptor, 1000 to 30000 nM.

Take `CCN(Cc1ccc(C)cc1-c1cc(CC(=O)O)ccc1OC)C(=O)OCc1ccc(Cl)cc1` [Compound 1-175, (2′-{[(4-Chloro-benzyloxycarbonyl)-ethyl-amino]-methyl}-6-methoxy-5′-methyl-biphenyl-3-yl)-acetic acid]: the IC50 is less than 300 nM at human DP2 receptor and 300 to 1000 nM on human DP1 receptor.

As to `CCN(Cc1cc(NC(=O)c2ccc(Cl)cc2)ccc1-c1cc(CC(=O)O)ccc1OC)C(=O)OCc1ccccc1` [Compound 1-154, [2′-[(Benzyloxycarbonyl-ethyl-amino)-methyl]-4′-(4-chloro-benzoylamino)-6-methoxy-biphenyl-3-yl]-acetic acid], the IC50 at human DP2 receptor was less than 300 nM; at human DP1 receptor, 1000 to 30000 nM.

As to `CCN(Cc1cc(C(F)(F)F)ccc1-c1cc(C(C)(C)C(=O)O)ccc1OC)C(=O)OCc1ccccc1` [Compound 1-116, 2-{2′-[(Benzyloxycarbonyl-ethyl-amino)-methyl]-6-methoxy-4′-trifluoromethyl-biphenyl-3-yl}-2-methyl-propionic acid], the IC50 at human DP2 receptor is 300 to 1000 nM; on human DP1 receptor it was 1000 to 30000 nM.

As to `COc1ccc(CC(=O)O)cc1-c1ccc(C(F)(F)F)cc1CN(C(C)=O)[C@@H]1c2ccccc2C[C@@H]1OC` [Compound 1-16, (2′-{[Acetyl-((1R,2S)-2-methoxy-indan-1-yl)-amino]-methyl}-6-methoxy-4′-trifluoromethyl-biphenyl-3-yl)-acetic acid], the IC50 at human DP2 receptor and at human DP1 receptor was 1000 to 30000 nM in each case.

As for `CCN(Cc1cc(C(F)(F)F)ccc1-c1cc(CC(=O)O)ccc1OC)C(=O)Cn1ccnc1C` [Compound 1-149, [2′-({Ethyl-[2-(2-methyl-imidazol-1-yl)-acetyl]-amino}-methyl)-6-methoxy-4′-trifluoromethyl-biphenyl-3-yl]-acetic acid], the IC50 at human DP2 receptor was less than 300 nM; on human DP1 receptor it was 1000 to 30000 nM.

Take `CCN(Cc1cc(C(F)(F)F)ccc1-c1cc(Cc2nn[nH]n2)ccc1OC)C(=O)OCc1ccccc1` [Compound 2-5, Ethyl-[2′-methoxy-5′-(2H-tetrazol-5-ylmethyl)-4-trifluoromethyl-biphenyl-2-ylmethyl]-carbamic acid benzyl ester]: the IC50 on human DP2 receptor and on human DP1 receptor was less than 300 nM in each case.

Consider `CCN(Cc1ccc(C(F)(F)F)cc1-c1cc(CC(=O)O)ccc1OC)C(=O)NCc1ccccc1` [Compound 1-172, [2′-(3-Benzyl-1-ethyl-ureidomethyl)-6-methoxy-5′-trifluoromethyl-biphenyl-3-yl]-acetic acid], for which the IC50 on human DP2 receptor was less than 300 nM; on human DP1 receptor it was 1000 to 30000 nM.

In the case of `O=C(O)Cc1ccc(F)c(-c2ccc(C(F)(F)F)cc2CN(CC(F)(F)F)C(=O)OCc2ccccc2)c1` [Compound 1-49, (2′-{[Benzyloxycarbonyl-(2,2,2-trifluoro-ethyl)-amino]-methyl}-6-fluoro-4′-trifluoromethyl-biphenyl-3-yl)-acetic acid], the IC50 on human DP2 receptor and on human DP1 receptor was 1000 to 30000 nM in each case.

In the case of `CCN(Cc1ccc(C(F)(F)F)cc1-c1cc(CC(=O)O)ccc1OC)C(=O)C1CC1` [Compound 1-170, {2′-[(Cyclopropanecarbonyl-ethyl-amino)-methyl]-6-methoxy-5′-trifluoromethyl-biphenyl-3-yl}-acetic acid], the IC50 at human DP2 receptor was less than 300 nM; at human DP1 receptor, 1000 to 30000 nM.

Take `CCN(Cc1cc(C(F)(F)F)ccc1-c1cc(CC(=O)O)ccc1OC)C(=O)CN1CCCC1` [Compound 1-151, (2′-{[Ethyl-(2-pyrrolidin-1-yl-acetyl)-amino]-methyl}-6-methoxy-4′-trifluoromethyl-biphenyl-3-yl)-acetic acid]: the IC50 on human DP2 receptor and on human DP1 receptor was 1000 to 30000 nM in each case.
